Reference: patent US5162317A, “Pyridinium salt and pharmacological composition containing the same” (Esai Co., Ltd., priority 1988, dated 1992)

target: T1, H^+ --K^+ ATPase (Sus scrofa, UniProt P19156); assay: Inhibition effect on H^+ --K^+ ATPase activity; format: biochemical; settings: H^+ --K^+ ATPase from fresh swine gastric mucosa, 10 μg protein/ml, pH 7.40, 37° C., 30 minutes incubation; compound dissolved in methanol
T1 construct: prepared from the fundus ventriculi gland of fresh swine gastric mucosa; from tissue; host or cells: swine gastric mucosa, fundus ventriculi gland (modified method of Saccomani et al. 1977)
T1 sequence (P19156 2-1034 limits assumed): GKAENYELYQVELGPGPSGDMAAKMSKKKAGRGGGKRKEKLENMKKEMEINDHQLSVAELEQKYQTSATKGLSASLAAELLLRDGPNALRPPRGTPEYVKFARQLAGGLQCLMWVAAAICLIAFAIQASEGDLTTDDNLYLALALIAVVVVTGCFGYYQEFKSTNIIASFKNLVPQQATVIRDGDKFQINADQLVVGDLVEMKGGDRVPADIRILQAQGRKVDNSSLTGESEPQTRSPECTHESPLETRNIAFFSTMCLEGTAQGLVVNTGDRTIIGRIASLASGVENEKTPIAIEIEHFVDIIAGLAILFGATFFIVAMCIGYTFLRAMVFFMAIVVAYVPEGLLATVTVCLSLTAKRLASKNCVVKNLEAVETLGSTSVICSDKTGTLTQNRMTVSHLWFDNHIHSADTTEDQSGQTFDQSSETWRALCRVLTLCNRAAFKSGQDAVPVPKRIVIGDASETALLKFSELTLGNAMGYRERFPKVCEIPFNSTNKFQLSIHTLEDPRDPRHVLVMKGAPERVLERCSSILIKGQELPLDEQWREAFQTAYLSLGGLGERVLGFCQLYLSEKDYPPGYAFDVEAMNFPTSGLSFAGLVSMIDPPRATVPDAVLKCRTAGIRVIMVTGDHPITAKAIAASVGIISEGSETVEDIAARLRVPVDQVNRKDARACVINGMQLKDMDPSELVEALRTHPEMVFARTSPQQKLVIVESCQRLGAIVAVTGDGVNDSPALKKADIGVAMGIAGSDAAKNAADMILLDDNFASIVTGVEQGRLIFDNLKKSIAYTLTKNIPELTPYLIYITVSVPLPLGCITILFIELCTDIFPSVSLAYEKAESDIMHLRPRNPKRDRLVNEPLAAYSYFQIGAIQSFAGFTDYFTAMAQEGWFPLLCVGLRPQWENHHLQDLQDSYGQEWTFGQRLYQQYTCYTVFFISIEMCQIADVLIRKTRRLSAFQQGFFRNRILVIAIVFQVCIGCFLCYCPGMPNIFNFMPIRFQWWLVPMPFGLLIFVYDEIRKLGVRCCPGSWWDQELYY
T1 sequence (P18434 whole entry partner): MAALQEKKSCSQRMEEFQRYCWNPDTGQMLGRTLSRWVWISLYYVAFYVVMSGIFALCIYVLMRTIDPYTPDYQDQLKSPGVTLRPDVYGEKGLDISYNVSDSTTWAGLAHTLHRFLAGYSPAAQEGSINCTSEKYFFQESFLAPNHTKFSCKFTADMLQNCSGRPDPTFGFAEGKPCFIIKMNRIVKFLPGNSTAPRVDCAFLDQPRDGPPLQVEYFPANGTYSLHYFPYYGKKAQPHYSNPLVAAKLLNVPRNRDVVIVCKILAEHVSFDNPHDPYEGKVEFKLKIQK
Procedure: Inhibition effect on H^+ --K^+ ATPase activity
(1) Preparation of H^+ --K+ATPase
The enzyme H^+ --K+ATPase was prepared from the fundus ventriculi gland of fresh swine gastric mucosa by a modified method of Saccomani et al. (Biochem. and Biophys. Acta., 464, 313 (1977)).
(2) Determination of H^+ --K^+ ATPase activity
(§1) Various concentrations of the compounds of the present invention were incubated together with 10 μg protein/ml of the H^+ --K^+ ATPase in a 40 mM Tris HCl buffer (pH 7.40) at 37° C. for 30 minutes. Then 15 mM KCl was added thereto. Ten minutes thereafter, an ATPase reaction between 3 mM of MgCl2 and ATP was started. Ten minutes thereafter, the liberated inorganic phosphoric acid was determined according to Yoda and Hokin's method (cf. Biochem. Biophys. Res., Com., 40, 880 (1970)).
The test compound was 3-(3-methoxy)propoxy-4-methyl-5H-pyrido[1'.2':4.5][1.2.4.]thiazino[2.3-a]- benzimidazol-13-ium tetrafluoroborate (the compound of Example 1). This compound was dissolved in methanol prior to the test.
The inhibition effect (%) was calculated by dividing the difference between the data of the test group and that of the control group, to which solvent was added exclusively, by the data of the control group.
(1) Preparation of H^+ --K^+ ATPase
The enzyme H^+ --K^+ ATPase was prepared from the fundus ventriculi gland of fresh swine gastric mucosa by a modified method of Saccomani et al. (Biochem. and Biophys. Acta., 464, 313 (1977)).
as §1, with “H+--K^+” for “H^+ --K^+”, “MgCl” for “MgCl2”
The test compound was 2-[2-(ethyldithiomethyl)4-(3-methoxy)propoxy-3-methyl-1-pyridinio)benzimidazolide (the compound of Example 1). […]

IC50 [µM]	Structure (SMILES)
0.44	COCCCOc1cc[n+]2c(c1C)CSn1c-2nc2ccccc21 [Example 1, 3-(3-Methoxy)propoxy-4-methyl-5H-pyrido[1'.2':4.5][1.2.4]thiaziano[2.3-a]benzimidazol-13-ium tetrafluoroborate]
> 10	CCSSCc1c(C)c(OCCCOC)cc[n+]1-c1nc2ccccc2[n-]1 [Example 12, 2-[2-(Ethyldithiomethyl)-4-(3-methoxy)propoxy-3-methyl-1pyridinio]benzimidazolide]
11	COc1ccc2[nH]c([S+]([O-])Cc3ncc(C)c(OC)c3C)nc2c1 (stereo not drawn) [Omeprazole, reference compound]
